{"source": "ChEMBL document CHEMBL1130597", "about": "“Design of a high affinity peptidomimetic opioid agonist from peptide pharmacophore models” (Bioorg Med Chem Lett, 1998)", "molecular_target": "Mu-type opioid receptor (Rattus norvegicus, UniProt P33535)", "sequence (P33535 whole entry)": "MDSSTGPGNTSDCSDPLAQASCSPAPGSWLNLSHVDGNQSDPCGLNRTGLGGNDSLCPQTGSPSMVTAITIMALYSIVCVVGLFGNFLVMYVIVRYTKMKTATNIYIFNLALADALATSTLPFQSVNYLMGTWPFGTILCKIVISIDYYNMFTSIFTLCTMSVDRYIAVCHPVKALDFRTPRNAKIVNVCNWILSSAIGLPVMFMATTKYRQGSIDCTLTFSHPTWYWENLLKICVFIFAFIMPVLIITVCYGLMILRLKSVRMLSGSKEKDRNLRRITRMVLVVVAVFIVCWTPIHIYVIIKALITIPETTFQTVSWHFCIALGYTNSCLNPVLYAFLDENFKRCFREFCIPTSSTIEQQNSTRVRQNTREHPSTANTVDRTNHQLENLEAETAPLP", "test": "Compound was tested for its ability to stimulate [35S]GTP-gamma-S, binding to membranes from C6 glioma cells stably expressing rat mu opioid receptor", "assay_type": "functional, cell membranes", "note": "pEC50: −log10 of the molar value."}
{"smiles": "CC1(C)SSC[C@@H](NC(=O)[C@@H](N)Cc2ccc(O)cc2)C(=O)N[C@@H](Cc2ccccc2)C(=O)N[C@@H]1C(N)=O", "values": [{"measurement": "pEC50", "value": 7.74}]}
